According to patent US10968181B2, “NRF2 activator” (BIOGEN MA INC., priority 2016, dated 2021):

Columns and labels:
[1] = test system: Nrf2 target genes; experiment: Gene expression (RT-PCR) in cultured human astrocytes; format: cell-based; settings: human astrocytes treated 20 hours; compared to 0.03% DMSO vehicle; FIGS. 1A to 1D
Method: (§1) Human astrocytes from ScienCell (cat #1820) were grown in astrocyte medium per supplier's instructions. Cells cultured for no more than two passages were plated in poly-D-lysine coated 96-well plates at 40,000 cells per well for gene transcription experiments and 20,000 cell per well for glutathione and cytoprotection assays.
Primary cultures of human spinal cord astrocytes were treated with test compounds for 20 hours. The cells were then rinsed in PBS, lysed, and processed for RNA using Ambion Taqman™ Cells-to-CT kit. The resulting cDNA was stored at −20° C. until analysis by real-time polymerase chain reaction (RT-PCR). The cDNA mixture from Cells-to-CT was diluted 5× before loading into PCR. This yields results similar to using 6 ng of purified cDNA. RT-PCR was performed on Life Technologies QuantStudio platform using OpenArray technique according to manufacturer's protocol using the following Taqman primers: […]
The comparative CT method was used to calculate fold changes using ThermoFisher Cloud software for PCR analysis. Samples were compared to 0.03% DMSO vehicle control.

[2] = test system: human astrocytes; experiment: Cytoprotection of human astrocytes against sodium arsenite; format: cell-based; settings: compound 20 hrs before arsenite, then 22 hrs, FIG. 3
Method: Human astrocytes from ScienCell (cat #1820) were grown in astrocyte medium per supplier's instructions. Cells cultured for no more than two passages were plated in poly-D-lysine coated 96-well plates at 40,000 cells per well for gene transcription experiments and 20,000 cell per well for glutathione and cytoprotection assays. Astrocytes were treated for 20 hrs with test compounds, then the medium was removed and replaced with serum- and supplement-free growth medium with and without 25 μM sodium arsenite. After 22 hrs., cells were washed with PBS, fixed with 4% paraformaldehyde/4% sucrose in PBS, stained with 4′,6-Diamidino-2-phenylindole dihydrochloride (DAPI) and counted by quantitative fluorescence microscopy.

[3] = test system: NQO-1 gene; experiment: NQO-1 gene induction in spleen of Townes mice; format: in vivo, Townes SCD mouse; settings: Townes SS mice, oral single dose 10 or 50 mg/kg or two doses of 25 mg/kg; at least at the 6 hour time point; FIGS. 10A-10C and 12
Excerpt: (§2) All animal experiments conformed to the guidance issued by the Biogen Institutional Animal Care and Use Committee and are described in approved protocols. The SCD mouse strain used in the in vivo studies is the Townes SCD mouse [Wu L C, Sun C W, Ryan™, Pawlik K M, Ren J, Townes™. Correction of sickle cell disease by homologous recombination in embryonic stem cells. Blood. 2006, 108(4):1183-8]. […] These mice harboring the sickle cell mutations in the hemoglobin β-globins chain show the presence of sickle cell disease characterized by abnormally low hemoglobin, circulating sickle shaped erythrocytes, varying degrees of damage of internal organs such as spleen, liver, and kidney. Male and female Townes SS mice aged 8 to 12 weeks were used for studies described here. […]
(§3) Frozen spleens were placed at room temperature. […] Extracted RNA was then quantitated using a Nanodrop and 1 μg of total RNA was converted to cDNA using VILO Mastermix kit according to manufacturer's protocol.
(§4) cDNA prepared from RNA isolated from tissue samples was used to determine gene expression levels of using Taqman based real time PCR (Life Technologies, ThermoFisher Scientific). […] Results were analyzed using the 7500 software version 2.0.5 and the relative levels of transcripts were measured with GAPDH as the endogenous housekeeping gene control using the 2^−ΔΔCt relative quantification method.

[4] = test system: γ-globin gene; experiment: γ-globin gene induction in spleen of Townes mice; format: in vivo, Townes SCD mouse; settings: Townes SS mice, oral single dose 10, 25 or 50 mg/kg or two doses of 25 mg/kg; at least at the 24 hour time point; FIGS. 9A-9D and 11
Excerpt: as §2, §3, §4

[5] = test system: HUDEP cells; experiment: HbF protein ELISA in cultured HUDEP cells; format: cell-based, human; settings: differentiating HUDEP cells, 72 hours, compared to DMSO; FIG. 8
Method: Human Umbilical Derived Erythroid Cells (HUDEP; from Riken Institute, Japan) were cultured in Stemspan SFEM medium (Stemcell Technologies, Vancouver, Canada) supplemented with erythroid cytokines and growth factors. Compound incubations were performed in HUDEP cells cultured in differentiation media.
Differentiating HUDEP cells were cultured with increasing concentrations of 12-Ent1 or equivalent DMSO concentrations for 72 hours and the levels of HbF protein was measured using a commercially available ELISA specific for human HbF (Bethyl Laboratories, TX) based on manufacturer's protocol.

[6] = test system: Nrf2 target genes; experiment: Nrf2 target gene expression (qRT-PCR) in tissues of wild type and Nrf2−/− mice; format: in vivo
Method: All procedures involving animals were performed in accordance with standards established in the Guide for the Care and Use of Laboratory Animals as adopted by the U.S. National Institutes of Health. All animal protocols were approved by the Biogen Institutional Animal Care and Use Committee, which is accredited by the Association for Assessment and Accreditation of Laboratory Animal Care International. Female 6-10 week-old wild type C57BL/6 and Nrf2−/− mice (Itoh et al, 1997; maintained at Jackson Labs, Bar Harbor, Me.) were maintained on a 12-hour light/dark cycle and given access to food and water ad libitum.
Compound 12-Ent1 (25 mg/kg) was administered as a single, oral dose in a vehicle of Solutol HS-15/polyethylene glycol/ethanol/water (10/10/10/70) to C57BL/6 (wt) and Nrf2−/− mice. Brain, jejunum, kidney and spleen were collected at 2 or 6 hours after dosing and snap frozen for RNA analysis of Nrf2 target genes.
For RNA preparation, frozen tissues were placed in 2 mL RNAse-free 96-well blocks with 1.5 ml QIAzol Lysis Reagent (QIAgen) and a 3.2 mm stainless steel bead (BioSpec Products, Bartlesville, Okla.). Tissues were disrupted for four cycles of 45 seconds in a Mini-Beadbeater (Biospec Products). RNA was extracted in chloroform and the aqueous phase was mixed with an equal volume of 70% ethanol. Extracted RNA was applied to RNeasy 96 plates and purified by the spin method according to the manufacturer's protocol (RNeasy 96 Universal Tissue Protocol, QIAgen, Hilden Germany).
qRT-PCR was performed from total mRNA isolated from tissues and reverse-transcribed into cDNA according to manufacturer protocols (Life Technologies, Carlsbad, Calif.). 20× Taqman target gene mouse primer/probe sets (see table below) were mixed with cDNA and 2× Taqman Universal Master Mix to a final volume of 20 uL. All final reactions contained 100 ng of cDNA, 900 nM of each primer, and 250 nM TaqMan® probes and were cycled on a QuantStudio™ 12K Flex system (Life Technologies). All samples were measured in triplicate using beta actin as a normalizing gene. Final analysis was performed using the comparative CT method to calculate fold changes and samples were normalized relative to wild type vehicle control at each time point.

[7] = test system: human astrocytes; experiment: Glutathione assay in cultured human astrocytes; format: cell-based; settings: 20-hr exposure, FIG. 2
Method: as §1
Intracellular glutathione was measured after a 20-hr exposure to test compounds by a two-step process. First, cells were lysed and luciferin quantitatively generated from substrate, catalyzed by glutathione-S-transferase in the presence of analyte glutathione. Then luciferin was assayed using stabilized luciferase to produce a luminescent signal proportional to the concentration of glutathione (Promega GSH-Glo, cat #V6912).

[8] = wild type vs Nrf2−/− mice, 25 mg/kg oral

CC(=O)N1CC[C@@H]2C(C)(C)C(=O)C(C#N)=C[C@@]2(C)C1 (single isomer, unassigned) [Compound 12-Ent1]
transcription of Nrf2 target genes, including GCLC, HMOX1, OSGIN1 and NQO1 [1]: induces transcription | protection from oxidative stress-induced cell death caused by 25 μM sodium arsenite [2]: protects cells | NQO-1 gene in spleen [3]: induces | human γ-globin gene in spleen [4]: induces | HbF protein in cultured HUDEP cells [5]: induces | expression of Akr1b8, Nqo1, Hmox1 and Osgin1 in kidney ([6]; 25 mg/kg single oral dose, 2 hours and 6 hours after dosing, FIGS. 4A to 4D): increases | expression of Akr1b8, Nqo1, Hmox1 and Osgin1 in Jejunum ([6]; 25 mg/kg single oral dose, 2 hours and 6 hours after dosing, FIGS. 5A to 5D): increases | expression of Nqo1, Hmox1 and Osgin1 in spleen ([6]; 25 mg/kg single oral dose, 2 hours and 6 hours after dosing, FIGS. 6A to 6D): increases | expression of Nqo1, Hmox1 and Osgin1 in brain ([6]; 25 mg/kg single oral dose, 2 hours and 6 hours after dosing, FIGS. 7A to 7D): increases | Nrf2 dependence of the gene expression increases in Jejunum [6, 8]: Nrf2-dependent | Nrf2 dependence of the gene expression increases in brain [6, 8]: Nrf2-dependent | Nrf2 dependence of the gene expression increases in kidney [6, 8]: Nrf2-dependent | Nrf2 dependence of the gene expression increases in spleen [6, 8]: Nrf2-dependent | intracellular glutathione [7]: increases
